In patent US20250313553A1, “ANNULATED 2-AMINO-3-CYANO THIOPHENES AND DERIVATIVES FOR THE TREATMENT OF CANCER” (Boehringer Ingelheim Int'l GmbH Corp., priority 2021, published 2025):
pIC50: −log10 of the molar value. Values after ≈ are worked out from the molar mass of the structure shown. Where two headings read alike, the source gives them in different places.

Experiments:
KRAS G12C Ba/F3 cells = KRAS G12C Ba/F3 cells (Homo sapiens, UniProt P01116, G12C, cells depend on it); experiment: Ba/F3 proliferation assay, KRAS G12C; assay type: cell-based; details: 72 h, AlamarBlue, read-out: KRAS G12C Ba/F3 IC50
Method: (§1) To generate KRASG12-dependent Ba/F3 models, Ba/F3 cells are transduced with retroviruses containing vectors that harbor KRASG12 isoforms. Platinum-E cells (Cell Biolabs) are used for retrovirus packaging. Retrovirus is added to Ba/F3 cells. To ensure infection, 4 μg/mL polybrene is added and cells are spinfected. […] Cells with an infection efficiency of 10% to 20% are further cultivated and puromycin selection with 1 μg/mL is initiated. As a control, parental Ba/F3 cells are used to show selection status. Selection is considered successful when parental Ba/F3 cells cultures died. To evaluate the transforming potential of KRASG12 mutations, the growth medium is no longer supplemented with IL-3. Ba/F3 cells harboring the empty vector are used as a control. Approximately ten days before conducting the experiments, puromycin is left out.
(§2) All treatments are performed in technical duplicates. […] AlamarBlue™ (ThermoFisher), a viability stain, is added and fluorescence measured in the PerkinElmer Envision HTS Multilabel Reader. The raw data are imported into and analyzed with the Boehringer Ingelheim proprietary software MegaLab (curve fitting based on the program PRISM, GraphPad Inc.).

[1] = tested on: ERK phosphorylation in NCI-H358 (KRAS G12C); experiment: ERK phosphorylation assay (assay 1, NCI-H358); assay type: cell-based; details: Homo sapiens; NCI-H358, assay 1, 1 h incubation; read-out: IC50 H358 pERK
Method: Low IC50 values in this assay setting are indicative of high potency of the compounds according to the invention. […]
The cells are incubated for 1 h at room temperature and then incubated overnight in an incubator at 37° C. and 5% CO2 in a humidified atmosphere. 60 nL compound solution (10 mM DMSO stock solution) is then added using a Labcyte Echo 550 device. […] After 20 min of incubation at room temperature with shaking, 6 μL of each lysate sample is transferred to a 384-well Proxiplate and analyzed for pERK (Thr202/Tyr204) with the AlphaLISA SureFire Ultra pERK1/2 (Thr202/Tyr204) Assay Kit. 3 μL Acceptor Mix and 3 μL Donor Mix are added under subdued light and incubated for 2 h at room temperature in the dark, before the signal is measured on a PerkinElmer Envision HTS Multilabel Reader. The raw data are imported into and analyzed with the Boehringer Ingelheim proprietary software MegaLab (curve fitting based on the program PRISM, GraphPad Inc.).

KRAS G12D Ba/F3 cells = KRAS G12D Ba/F3 cells (Homo sapiens, UniProt P01116, G12D, cells depend on it); experiment: Ba/F3 proliferation assay, KRAS G12D; assay type: cell-based; details: 72 h, AlamarBlue, read-out: KRAS G12D Ba/F3 IC50
Method: as §1, §2

KRAS (G12D) and SOS1 = target: T1, KRAS (G12D) and SOS1 (Homo sapiens, UniProt P01116, G12D); experiment: KRAS::SOS1 AlphaScreen binding assay, KRAS G12D
T1 construct: KRAS (G12D) 1-169, N-terminal 6His-tag; 6His (N); purchased Xtal BioStructures, Inc. (KRAS G12D); Viva Biotech Ltd (SOS1)
Method: (§3) Low IC50 values in this assay setting are indicative of strong inhibition of protein-protein interaction between SOS1 and KRAS:
(§4) These assays measure the inhibitory effect of compounds on KRAS mutant protein-protein interactions using the Alpha Screen technology by Perkin Elmer.
(§5) For the chosen highest assay concentration of 100 μM, 150 nL of compound solution are transferred from a 10 mM DMSO compound stock solution. A series of eleven fivefold dilutions per compound are transferred to the assay plate, compound dilutions are tested in duplicates. DMSO are added as backfill to a total volume of 150 nL.
(§6) The assays run on a fully automated robotic system in a darkened room below 100 Lux. To 150 nl of compound dilution 10 μl of a mix including KRAS mutant protein, SOS1 (final assay concentrations see above) and GDP nucleotide (Sigma G7127; final assay concentration 10 μM) in assay buffer (1×PBS, 0.1% BSA, 0.05% Tween 20) are added into columns 1-24. After 30 minutes incubation time 5 μl of Alpha Screen bead mix in assay buffer are added into columns 1-23.
(§7) Plates are kept at room temperature in a darkened incubator. After an additional 60 minutes incubation time the signal is measured in a PerkinElmer Envision HTS Multilabel Reader using the AlphaScreen specs from PerkinElmer.
(§8) IC50 values are calculated and analyzed with Boehringer Ingelheim's MEGALAB IC50 application using a 4 parametric logistic model.

[2] = Solubility measurement (DMSO solution precipitation method); assay type: physicochemical; details: aqueous buffer, kinetic from dmso stock
Method: The DMSO solution is diluted with an aqueous medium (McIlvaine buffer with pH=4.5 or 6.8) to a final concentration of 250 μM. After 24 h of shaking at ambient temperature a potentially formed precipitate is removed by filtration. The concentration of the test compound in the filtrate is determined by LC-UV methods by calibrating the signal to the signal of a reference solution with complete dissolution of the test compound in acetonitrile/water (1:1) with known concentration.

[3] = Metabolic (microsomal) stability assay, HLM; assay type: in vitro ADME; details: human liver microsomes, 1 μM, predicted clearance as percent of liver blood flow
Method: The metabolic degradation of the test compound is assayed at 37° C. with pooled liver microsomes (mouse (MLM), rat (RLM) or human (HLM)). The final incubation volume of 48 μL per time point contains TRIS buffer (pH 7.5; 0.1 M), magnesium chloride (6.5 mM), microsomal protein (0.5 mg/mL for mouse/rat, 1 mg/mL for human specimens) and the test compound at a final concentration of 1 μM. Following a short preincubation period at 37° C., the reactions are initiated by addition of 12 μL beta-nicotinamide adenine dinucleotide phosphate, reduced form (NADPH, 10 mM) and terminated by transferring an aliquot into solvent after different time points (0, 5, 15, 30, 60 min). Additionally, the NADPH-independent degradation is monitored in incubations without NADPH, terminated at the last time point by addition of acetonitrile. The quenched incubations are pelleted by centrifugation (4,000 rpm, 15 min). An aliquot of the supernatant is assayed by LC-MS/MS to quantify the concentration of parent compound in the individual samples.
In vitro intrinsic clearance (CLint, in vitro) is calculated from the time course of the disappearance of the test drug during the microsomal incubation. Each plot is fitted to the first-order elimination rate constant as C(t)=C0*exp(−ke*t), where C(t) and C0 are the concentration of unchanged test drug at incubation time t and that at preincubation and ke is the disappearance rate constant of the unchanged drug. Subsequently, CLint, in vitro (μL min^−1·amount protein) values are converted to predicted CLint, in vivo (mL min^−1·kg^−1) from incubation parameters according to the equation CLint, in vivo=CLint, in vitro×(incubation volume (ml)/amount protein (mg))×(amount protein (mg)/g liver tissue)×(liver weight/body wt.). For better across species comparison the predicted clearance is expressed as percent of the liver blood flow [% QH](mL min^−1·kg^−1) in the individual species. In general, high stability (corresponding to low % QH) of the compounds across species is desired.

KRAS (G12C) and SOS1 = target: T2, KRAS (G12C) and SOS1 (Homo sapiens, UniProt P01116, C118S/C51S/C80L/G12C); experiment: KRAS::SOS1 AlphaScreen binding assay, KRAS G12C
T2 construct: KRAS (G12C) 1-169, N-terminal 6His-tag for purification; 6His (N, cleaved yes)
Method: as §3, §4, §5, §6, §7, §8

KRAS G12V Ba/F3 cells = KRAS G12V Ba/F3 cells (Homo sapiens, UniProt P01116, G12V, cells depend on it); experiment: Ba/F3 proliferation assay, KRAS G12V; assay type: cell-based; details: 72 h, AlamarBlue, read-out: KRAS G12V Ba/F3 IC50
Method: as §1, §2

KRAS (G12V) and SOS1 = target: T3, KRAS (G12V) and SOS1 (Homo sapiens, UniProt P01116, C118S/G12V); experiment: KRAS::SOS1 AlphaScreen binding assay, KRAS G12V
T3 construct: KRAS (G12V) 1-169, N-terminal 6His-tag for purification; 6His (N, cleaved yes); TEV cleavage site
Method: as §3, §4, §5, §6, §7, §8

[4] = McIlvaine buffer pH 4.5, 24 h, read-out: solubility pH 4.5
[5] = McIlvaine buffer pH 6.8, 24 h, read-out: solubility pH 6.8

T2 sequence (P01116 1-169 isoform P01116-2 G12C/C51S/C80L/C118S): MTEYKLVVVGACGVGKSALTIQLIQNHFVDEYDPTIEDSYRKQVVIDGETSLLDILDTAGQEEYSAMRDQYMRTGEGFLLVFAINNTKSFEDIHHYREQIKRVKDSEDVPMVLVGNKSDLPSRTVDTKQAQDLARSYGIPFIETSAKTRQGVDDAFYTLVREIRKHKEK
KRAS G12C Ba/F3 cells, sequence (P01116 whole entry G12C, canonical isoform): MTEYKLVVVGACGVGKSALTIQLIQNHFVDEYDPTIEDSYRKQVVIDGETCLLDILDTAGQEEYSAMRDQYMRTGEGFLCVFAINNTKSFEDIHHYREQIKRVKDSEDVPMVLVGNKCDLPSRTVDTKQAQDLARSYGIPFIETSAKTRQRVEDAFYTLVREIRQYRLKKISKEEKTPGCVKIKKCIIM
KRAS G12D Ba/F3 cells, sequence (P01116 whole entry G12D): as the sequence (P01116 whole entry G12C, canonical isoform) above, with C12D counted along it
T1 sequence (P01116 1-169 isoform P01116-2 G12D): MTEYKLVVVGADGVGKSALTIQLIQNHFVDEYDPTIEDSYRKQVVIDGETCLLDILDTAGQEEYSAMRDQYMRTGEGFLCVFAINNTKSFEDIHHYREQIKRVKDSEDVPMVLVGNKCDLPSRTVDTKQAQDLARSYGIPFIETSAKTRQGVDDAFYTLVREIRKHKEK
KRAS G12V Ba/F3 cells, sequence (P01116 whole entry G12V): as the sequence (P01116 whole entry G12C, canonical isoform) above, with C12V counted along it
T3 sequence (P01116 1-169 isoform P01116-2 G12V/C118S): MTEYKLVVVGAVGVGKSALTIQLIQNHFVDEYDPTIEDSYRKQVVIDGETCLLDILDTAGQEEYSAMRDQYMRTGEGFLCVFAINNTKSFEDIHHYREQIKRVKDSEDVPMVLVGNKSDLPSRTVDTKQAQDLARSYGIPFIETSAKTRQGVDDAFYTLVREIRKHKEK

SMILES | GI50 (KRAS G12C Ba/F3 cells) | pIC50 [1] | GI50 (KRAS G12D Ba/F3 cells) | pIC50 (KRAS (G12D) and SOS1) | solubility at 24 h [2, 4] | solubility at 24 h [2, 5] | HLM QH [3] | pIC50 (KRAS (G12C) and SOS1) | GI50 (KRAS G12V Ba/F3 cells) | pIC50 (KRAS (G12V) and SOS1)
C[C@H]1CN(CC2CC2)CCCN1c1nccc(-c2noc([C@@]3(C)CCCc4sc(N)c(C#N)c43)n2)n1 [Example V-3] | 409 nM | 7.62 | 214 nM | 8.52 | > 100 µg/mL | 82 µg/mL (≈ 162 µM) | >95% | 8.22 | 516 nM | 8.30
C[C@H](Oc1ccnc(-c2cc([C@@]3(C)CCCc4sc(N)c(C#N)c43)on2)n1)[C@@H]1CCCN1C [Example V-24] | 105 nM | 7.72 | 108 nM | 8.70 | > 110 µg/mL | > 110 µg/mL |  | 8.40 |  | 
C[C@H](Oc1ccnc(-c2cc([C@@]3(C)CCCc4sc(N)c(C#N)c43)no2)n1)[C@@H]1CCCN1C [Example V-25] | 940 nM | 7.00 | 961 nM | 8.05 | > 110 µg/mL | > 100 µg/mL |  | 7.85 | 6060 nM | 7.96
CC(C)N1CCCN(c2nccc(-c3cc([C@@]4(C)CCCc5sc(N)c(C#N)c54)on3)n2)[C@@H](C)C1 [Example V-26] | 95 nM |  | 79 nM | 8.70 | > 100 µg/mL | 95 µg/mL (≈ 193 µM) |  | 8.15 |  | 
